Assay results from US9981972B2, “N-hydroxy bicyclic hydantoin carbamates as tools for identification of serine hydrolase targets” (ABIDE THERAPEUTICS, INC., priority 2014, dated 2018).
“Also recorded” adds a separate entry of the source.

Columns and labels:
[1] = molecular target: T1, LYPLA1 (Mus musculus, UniProt P97823); test: Gel-based competitive ABPP in vitro, mouse brain membrane proteome; type: biochemical; settings: 30 min, one replicate; for inhibition at 0.1 µM: 0.1 μM compound, read-out: LYPLA1 % INH 0.1 μM; for inhibition at 1 µM: 1 μM compound, read-out: LYPLA1 % INH 1 μM; for inhibition at 10 µM: 10 μM compound, read-out: LYPLA1 % INH 10 μM; for inhibition at 100 µM: 100 μM compound, read-out: LYPLA1 % INH 100 μM
T1 construct: a complex proteome endogenously expressing LYPLA1/2 was incubated with test compound; from tissue; host or cells: mouse brain, membrane fraction
T1 sequence (P97823 whole entry): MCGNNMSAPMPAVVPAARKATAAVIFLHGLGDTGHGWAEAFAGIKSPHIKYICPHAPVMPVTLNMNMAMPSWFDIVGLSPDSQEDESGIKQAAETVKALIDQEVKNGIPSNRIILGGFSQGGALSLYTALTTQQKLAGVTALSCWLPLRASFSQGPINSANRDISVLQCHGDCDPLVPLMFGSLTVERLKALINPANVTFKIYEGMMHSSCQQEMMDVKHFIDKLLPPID
Method in brief: (§1)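 Mouse brain membrane proteome (1 mg/mL in DPBS) was treated with compound (0.1-100 μM) for 30 min at 37 °C, then labeled with FP-Rh (2 μM final, 30 min, 25 °C). Bands were resolved by SDS-PAGE and scanned in-gel, with inhibition taken from band optical density versus DMSO. Targets counted as active or anti-targets at ≥50% inhibition.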

[2] = molecular target: T2, LYPLA2 (Mus musculus, UniProt Q9WTL7); test: as above; type: biochemical; settings: 30 min, one replicate; for inhibition at 0.1 µM: 0.1 μM compound, read-out: LYPLA2 % INH 0.1 μM; for inhibition at 1 µM: 1 μM compound, read-out: LYPLA2 % INH 1 μM; for inhibition at 10 µM: 10 μM compound, read-out: LYPLA2 % INH 10 μM; for inhibition at 100 µM: 100 μM compound, read-out: LYPLA2 % INH 100 μM
T2 construct: a complex proteome endogenously expressing LYPLA1/2 was incubated with test compound; from tissue; host or cells: mouse brain, membrane fraction
T2 sequence (Q9WTL7 whole entry): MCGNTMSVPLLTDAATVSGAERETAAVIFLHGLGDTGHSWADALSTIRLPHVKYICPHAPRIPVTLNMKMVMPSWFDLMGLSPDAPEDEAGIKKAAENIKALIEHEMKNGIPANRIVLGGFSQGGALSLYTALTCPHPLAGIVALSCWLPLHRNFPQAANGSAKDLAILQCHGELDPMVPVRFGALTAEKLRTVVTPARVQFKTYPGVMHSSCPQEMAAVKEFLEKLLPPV
Method in brief: as §1

[3] = system: FP-sensitive SHs in the mouse brain membrane proteome; test: Gel-based competitive ABPP in vitro, mouse brain membrane proteome, anti-targets; type: biochemical; settings: for Anti-target(s) 0.1 μM: SHs with at least 50% inhibition at 0.1 μM compound; for Anti-target(s) 1 μM: SHs with at least 50% inhibition at 1 μM compound; for Anti-target(s) 10 μM: SHs with at least 50% inhibition at 10 μM compound; for Anti-target(s) 100 μM: SHs with at least 50% inhibition at 100 μM compound
Procedure: Assay Overview: The purpose of this assay was to determine whether test compounds can inhibit LYPLA1 and LYPLA2 in a complex proteomic lysate and to assess anti-target inhibition using a competitive activity-based proteomic profiling (ABPP) assay. In this assay, a complex proteome endogenously expressing LYPLA1/2 was incubated with test compound followed by reaction with a rhodamine-conjugated fluorophosphonate (FP-Rh) serine-hydrolase specific activity-based probe. The reaction products were separated by SDS-PAGE and visualized in-gel using a flatbed fluorescence scanner. The percentage activity remaining was determined by measuring the integrated optical density of the bands. […] Percent inhibition was calculated relative to a DMSO (no compound) control.
Protocol Summary: Mouse brain membrane proteome (50 μL reaction volume, 1 mg/mL in DPBS) was treated with 0.1-100 μM test compound (1 μL of a 50× stock in DMSO) for 30 minutes at 37° C. FP-Rh (1 μL of 50× stock in DMSO, Thermo #88318) was added to a final concentration of 2 μM. The reactions were incubated for 30 minutes at 25° C., quenched with 16 μL 4×SDS-PAGE loading buffer (reducing), separated by SDS-PAGE and visualized by in-gel fluorescent scanning. The percentage activity remaining was determined by measuring the integrated optical density of the bands relative to a DMSO-only (no compound) control. Assay Cutoff: Compounds with ≥50% inhibition of targets at 1 μM test compound concentration were considered active.
N-Hydroxy bicyclic hydantoin carbamates (Compounds 1-20) listed in Table 1 were subjected to gel-based competitive ABPP screening to assess SH reactivity against more than 20 FP-sensitive SHs visible by 1D SDS-PAGE separation and fluorescent detection in the mouse brain proteome (see FIG. 1). […] Compound treatment ([…], 30 minutes) was followed by labeling with SH-specific ABPP probe FP-Rh (2 μM, 30 minutes), 1D-SDS-PAGE, and in-gel fluorescent visualization of FP-labeled proteins. Assignment of LYPLA1/2 bands was based on correlation of molecular weights, expression and inhibition profiles with LC-MS/MS data and recombinant enzyme expression. Proteins were listed as anti-targets if at least 50% inhibition was observed as quantified relative to the DMSO control.
Compounds 1-20 were subjected to gel-based competitive ABPP profiling to assess potency and selectivity against several dozen FP-sensitive SHs in the mouse brain membrane proteome, which endogenously expresses LYPLA1 and LYPLA2, as well a diversity of potential SH anti-targets. Compounds were tested at 100 μM, 10 μM, 1 μM, and/or 0.1 μM compound concentration.

[4] = molecular target: T3, human LYPLA1 (Homo sapiens, UniProt O75608); test: IC50 by gel-based competitive ABPP in vitro, soluble HeLa cell proteome; type: biochemical; settings: human LYPLA isoform, three replicates; Table 2 prints no unit, nM; read-out: LYPLA1 IC50
T3 construct: endogenous human LYPLA1/2 in a HeLa soluble proteome; endogenous in cells; host or cells: HeLa (soluble proteome in vitro; cultured cells in situ)
T3 sequence (O75608 whole entry, canonical isoform): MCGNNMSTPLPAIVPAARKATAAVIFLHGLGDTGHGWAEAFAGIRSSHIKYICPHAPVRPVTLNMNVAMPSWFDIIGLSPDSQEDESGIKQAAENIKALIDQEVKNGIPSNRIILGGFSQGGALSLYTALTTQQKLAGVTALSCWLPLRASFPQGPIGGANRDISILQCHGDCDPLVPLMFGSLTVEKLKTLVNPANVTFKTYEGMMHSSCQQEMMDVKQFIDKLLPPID
Procedure: (§2) Assay Overview: The purpose of this assay was to determine IC50 values of powder samples of test compounds for enzyme of interest activity, and anti-targets in a complex proteomic lysate using a gel-based competitive ABPP assay. In this assay, a complex proteome was incubated with test compound followed by reaction with FP-Rh and SDS-PAGE analysis as described above.
(§3) Protocol Summary: Soluble HeLa cell proteome (50 μL reaction volume, 1 mg/mL in DPBS) or mouse brain membrane proteome (50 μL reaction volume, 1 mg/mL in DPBS) was treated with varying concentrations of test compound (1 μL of a 50× stock in DMSO) for 30 minutes at 37° C. FP-Rh (1 μL of 50× stock in DMSO) was added to a final concentration of 2 μM. The reaction was incubated for 30 minutes at 25° C., quenched with 16 μL 4×SDS-PAGE loading buffer (reducing), separated by SDS-PAGE and visualized by in-gel fluorescent scanning. The percentage activity remaining was determined by measuring the integrated optical density of the enzymes of interest, and anti-target bands relative to a DMSO-only (no compound) control. IC50 values were determined from dose-response curves from three replicates at each inhibitor concentration: 1, 10, 100, 1000, 10000 nM and 0.01, 0.1, 1, 10, 100, 1000, 10000, 50000, and 100000 nM.

[5] = molecular target: T4, human LYPLA2 (Homo sapiens, UniProt O95372); test: as above; type: biochemical; settings: human LYPLA isoform, three replicates; Table 2 prints no unit, nM; read-out: LYPLA2 IC50
T4 construct: endogenous human LYPLA1/2 in a HeLa soluble proteome; endogenous in cells; host or cells: HeLa (soluble proteome in vitro; cultured cells in situ)
T4 sequence (O95372 whole entry, canonical isoform): as the sequence (Q9WTL7 whole entry) above, with N154A, T193S counted along it
Procedure: as §2, §3

[6] = molecular target: T5, ABHD4 (Homo sapiens, UniProt Q8TB40); test: Gel-based competitive ABPP, recombinant enzyme in transfected HEK293T cell lysates; type: biochemical; set-up: myc-his; expressed in transfected cells; host or cells: HEK293T, transient transfection, pcDNA3.1/myc-his; lysate used in vitro; settings: recombinant, combined HEK293T lysates, gel-based ABPP
T5 sequence (Q8TB40 1-342): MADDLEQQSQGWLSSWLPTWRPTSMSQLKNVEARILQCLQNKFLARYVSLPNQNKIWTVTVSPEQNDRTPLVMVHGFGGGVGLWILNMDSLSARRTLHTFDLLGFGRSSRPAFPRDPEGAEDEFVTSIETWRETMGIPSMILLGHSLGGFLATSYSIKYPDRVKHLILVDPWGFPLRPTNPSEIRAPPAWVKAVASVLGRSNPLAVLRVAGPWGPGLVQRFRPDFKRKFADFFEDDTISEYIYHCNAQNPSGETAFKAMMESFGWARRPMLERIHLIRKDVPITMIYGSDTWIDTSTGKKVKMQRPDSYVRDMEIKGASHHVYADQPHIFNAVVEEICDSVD
Procedure: (§4) HEK293T cells were seeded at 2×10^5 per well on 6 well plates and grown for 48 h. They were then transfected with mABHD3 (pCMV-Sport6), hABHD4 (pcDNA3.1/myc-his), hPPT1 (pCMV6-XL5), or hPPT1 S115A (pCMV6-XL5), by incubating 0.5 μg of DNA with 3 μL of PEI MAX (1 mg/mL, Polysciences, Inc) in serum-free DMEM for 30 min, then adding them to cells. After 48 h cells were either treated with compound in situ, as described above, or harvested for in vitro studies. The […] PPT1 mutation was introduced using QuikChange II Site Directed Mutagenesis Kit (Agilent) with the following primers: […]
Human ABHD3 and ABHD4 were recombinantly expressed by transient transfection in HEK293T cells, and the cell lysates were combined to provide a convenient assay for monitor inhibition of both enzymes by gel-based ABPP (see FIG. 8A). […]

[7] = molecular target: T6, PPT1 (Homo sapiens, UniProt P50897); test: In situ inhibition of hPPT1 in transfected HEK293T cells, competitive ABPP with Compound 39 probe; type: cell-based; set-up: expressed in transfected cells; host or cells: HEK293T; settings: 2 μM, hPPT1-transfected HEK293T cells, in situ
T6 sequence (P50897 28-306): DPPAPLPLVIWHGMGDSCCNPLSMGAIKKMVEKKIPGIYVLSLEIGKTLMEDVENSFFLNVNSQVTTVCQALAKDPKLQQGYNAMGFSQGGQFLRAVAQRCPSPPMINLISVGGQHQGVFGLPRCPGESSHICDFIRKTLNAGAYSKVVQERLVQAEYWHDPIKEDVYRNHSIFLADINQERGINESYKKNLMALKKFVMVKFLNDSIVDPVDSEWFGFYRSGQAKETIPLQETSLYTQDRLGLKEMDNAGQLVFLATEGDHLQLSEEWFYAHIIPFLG
Procedure: as §4
In situ inhibitor treatments of human cell lines were performed as described previously (Hsu et al., J Med Chem 56, 8270-8279, 2012). Briefly, PC3 or transfected HEK293T cells were grown to confluency in serum-containing media (RPMI or DMEM, respectively). The culture media was then removed and replaced with fresh media containing DMSO or inhibitor at the desired concentration and incubated for 4 hours in a tissue culture incubator (37° C., 5% CO2). Cells were then washed with PBS, harvested, washed with PBS once more, and lysed with a probe sonicator.
This possibility was explored by treating HEK293T cells transfected with human PPT1 (hPPT1) with Compound 37 (5 μM, 4 h pre-treatment) or DMSO followed by cell lysis and treatment with Compound 39 (5 μM, 1 h). A strong, but diffuse Compound 37-sensitive, Compound 39-labeled protein band was detected by gel-based ABPP in hPPT1-transfected, but not mock-transfected cell lysates (see FIG. 14), and this diffuse signal was compressed to a tight, faster-migrating band matching the predicted molecular weight of PPT1 following treatment with the glycosidase PNGaseF (see FIG. 14). Western blotting with an anti-PPT1 antibody confirmed a similar migration pattern for hPPT1 protein in transfected cell lysates (see FIG. 14, bottom panel).
A structurally diverse panel of N-hydroxy bicyclic hydantoin carbamates were assayed at 2 or 0.2 μM for in situ inhibition of hPPT1 in transfected HEK293T cells.

Structure (SMILES) | inhibition at 0.1 µM [1] | inhibition at 1 µM [1] | inhibition at 10 µM [1] | inhibition at 100 µM [1] | inhibition at 0.1 µM [2] | inhibition at 1 µM [2] | inhibition at 10 µM [2] | inhibition at 100 µM [2] | Anti-target(s) 0.1 μM [3] | Anti-target(s) 1 μM [3] | Anti-target(s) 10 μM [3] | Anti-target(s) 100 μM [3] | IC50 [4] | IC50 [5] | preference ABHD4 over ABHD3 [6] | hPPT1 (in situ), % @ 2 μM [7]
O=C(ON1C(=O)C2CN(C(=O)N3CCCC3)CCN2C1=O)N1CCC(CCc2ccc(Cl)cc2)CC1 (stereo not shown) [Compound 3, 1,3-dioxo-7-(pyrrolidine-1-carbonyl)hexahydroimidazo[1,5-a]pyrazin-2(3H)-yl 4-(4-chlorophenethyl)piperidine-1-carboxylate] | 50% | 100% | 100% | 100% | 50% | 100% | 100% | 100% | ABHD6 | FAAH,; also recorded: ABHD6 | FAAH,; also recorded: ABHD6 | FAAH,; also recorded: ABHD12,; also recorded: ABHD4,; also recorded: MAGL,; also recorded: ABHD6 | 225 nM | 384 nM |  | 
O=C(ON1C(=O)C2CN(Cc3ccc(Br)cc3)CCN2C1=O)N1CCC(CCc2ccc(Cl)cc2)CC1 (stereo not shown) [Compound 13, 7-(4-bromobenzyl)-1,3-dioxohexahydroimidazo[1,5-a]pyrazin-2(3H)-yl 4-(4-chlorophenethyl)piperidine-1-carboxylate] | 0% | 10% | 75% | 90% | 0% | 10% | 75% | 90% | ABHD6 | FAAH,; also recorded: ABHD4,; also recorded: ABHD6 | FAAH,; also recorded: ABHD4,; also recorded: ABHD6 | FAAH,; also recorded: ABHD4,; also recorded: MAGL,; also recorded: ABHD6 |  |  | preferentially inhibited ABHD4 over ABHD3 | 
COc1ccc(N2CCN(C(=O)ON3C(=O)C4CN(CC5CCN(C(=O)OC(C)(C)C)CC5)CCN4C3=O)CC2)cc1 (stereo not shown) [Compound 24, 7-((1-(tert-butoxycarbonyl)piperidin-4-yl)methyl)-1,3-dioxohexahydroimidazo[1,5-a]pyrazin-2(3H)-yl 4-(4-methoxyphenyl)piperazine-1-carboxylate] |  |  |  |  |  |  |  |  |  |  |  |  |  |  |  | 100% @ 2 μM
